Patent publication US20020022619A1, “Tricyclic fused pyridine and pyrimidine derivatives as CRF antagonists” (priority 2000, published 2002)

Legend:
[1] = system: “anxiogenic” effects of CRF; conditions: cited from earlier work; for effect on the “anxiogenic” effects / actions of CRF in the conflict test: rats, given with CRF

Compound | behavioral activity alone in the operant conflict test ([1]; compound alone, without CRF) | effect on the “anxiogenic” effects / actions of CRF in the conflict test [1] | melting point
CCOC(=O)c1ncn2c1CN(C)C(=O)c1cc(F)ccc1-2 [Ro15-1788] | without behavioral activity alone | reversed the effects of CRF in a dose-dependent manner | –
CCN1CCCn2c(=O)n(-c3ccc(C(C)C)cc3Br)c3nc(C)nc1c32 [Example 1, 2-(2-Bromo-4-isopropyl-phenyl)-6-ethyl-4-methyl-6,7,8,9-tetrahydro-2H-2,3,5,6,9a-pentaaza-benzo[cd]azulen-1-one] | – | – | 144.5 to 146 °C
CNC(=O)c1cc2c(cn1)[nH]c1ccccc12 [FG7142] | – | enhanced the actions of CRF | –
